Where two headings read alike, the source gives them in different places.
What was measured:
[1] = molecular target: C. elegans (N2) complex I (NADH:ubiquinone oxidoreductase) (Caenorhabditis elegans, UniProt P24887+Q93873+Q94360); experiment: biochemical; format: biochemical; conditions: for activity at 0.0001 µM / activity at 0.0005 µM / activity at 0.001 µM / activity at 0.0025 µM / activity at 0.005 µM / activity at 0.013 µM / activity at 0.025 µM / activity at 0.063 µM / activity at 0.125 µM / activity at 0.313 µM / activity at 0.625 µM / activity at 1.5 µM / activity at 3 µM / activity at 15 µM / activity at 37.5 µM / activity at 75 µM: read-out: C. elegans mitochondrial complex I activity; for Log IC50 C. elegans complex I: log10 of IC50 in µM, C. elegans mitochondria; for remaining activity at 0.0001 µM / remaining activity at 0.0005 µM / remaining activity at 0.001 µM / remaining activity at 0.0025 µM / remaining activity at 0.005 µM / remaining activity at 0.013 µM / remaining activity at 0.025 µM / remaining activity at 0.063 µM / remaining activity at 0.125 µM / remaining activity at 0.313 µM / remaining activity at 0.625 µM / remaining activity at 1.5 µM / remaining activity at 3 µM / remaining activity at 15 µM / remaining activity at 37.5 µM / remaining activity at 75 µM: wild-type C. elegans
Chain of C. elegans (N2) complex I (NADH:ubiquinone oxidoreductase) (Q94360 17-199): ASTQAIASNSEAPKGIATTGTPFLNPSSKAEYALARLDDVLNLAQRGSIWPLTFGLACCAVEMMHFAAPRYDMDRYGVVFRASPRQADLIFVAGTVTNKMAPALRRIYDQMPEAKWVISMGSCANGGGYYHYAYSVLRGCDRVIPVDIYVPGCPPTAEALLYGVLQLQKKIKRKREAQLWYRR
Chain of C. elegans (N2) complex I (NADH:ubiquinone oxidoreductase) (P24887 whole entry): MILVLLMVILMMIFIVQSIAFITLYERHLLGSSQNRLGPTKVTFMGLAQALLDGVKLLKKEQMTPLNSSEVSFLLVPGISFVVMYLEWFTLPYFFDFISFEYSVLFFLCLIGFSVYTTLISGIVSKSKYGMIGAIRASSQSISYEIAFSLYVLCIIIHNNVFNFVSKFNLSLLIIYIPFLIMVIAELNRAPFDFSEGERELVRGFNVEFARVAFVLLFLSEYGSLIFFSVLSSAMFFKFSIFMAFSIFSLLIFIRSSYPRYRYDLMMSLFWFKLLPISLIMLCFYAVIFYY
Chain of C. elegans (N2) complex I (NADH:ubiquinone oxidoreductase) (Q93873 31-482): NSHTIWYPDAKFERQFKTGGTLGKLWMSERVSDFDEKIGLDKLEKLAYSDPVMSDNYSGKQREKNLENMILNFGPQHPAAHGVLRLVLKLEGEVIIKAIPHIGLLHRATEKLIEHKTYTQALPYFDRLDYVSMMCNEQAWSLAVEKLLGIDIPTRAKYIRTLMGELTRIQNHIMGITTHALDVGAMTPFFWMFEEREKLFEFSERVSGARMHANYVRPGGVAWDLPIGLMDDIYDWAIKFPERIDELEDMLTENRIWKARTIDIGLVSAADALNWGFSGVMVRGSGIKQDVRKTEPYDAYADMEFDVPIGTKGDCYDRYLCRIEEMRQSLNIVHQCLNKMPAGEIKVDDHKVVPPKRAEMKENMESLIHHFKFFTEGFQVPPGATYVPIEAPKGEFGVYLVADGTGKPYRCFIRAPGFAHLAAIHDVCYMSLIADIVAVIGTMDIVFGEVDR
Method in brief: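 Complex I rate: initial linear slope of A600 over 15 min, expressed as percent of solvent control. Triple freeze-thawed mitochondria (0.2 mg/mL) in KPi pH 7.5, BSA 3 mg/mL, NADH 80 μM, decylubiquinone 60 μM, DCIP 160 μM, antimycin A, KCN.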

L1 wild-type C. elegans = conditions: for Screen "Hit": 50 μM, KCN survival assay, hit = relative motility below 0.25
in vitro = conditions: human; for CC50 at 2 days: HEK293 Cell Viability Assay LC50, HEK293 cells, estimated from fitted dose-response curves, mean of at least two biological replicates; for viability at 2 days, 3.13 µM / viability at 2 days, 6.25 µM / viability at 2 days, 12.5 µM / viability at 2 days, 25 µM / viability at 2 days, 50 µM / viability at 2 days, 100 µM: HEK293 cells (Flp-In-293), HEK293 viability
[2] = in vitro complex I dose response on C. elegans mitochondria, average of at least two biological replicates, fit in R (DRC), read-out: IC50 C. elegans complex I
[3] = wild-type (N2) mitochondria, read-out: C. elegans Complex I IC50
[4] = wild-type C. elegans mitochondria, estimated from fitted dose-response curves, read-out: C. elegans Complex I IC50
[5] = Dose 0.2 µM, mean of at least three biological replicates
[6] = individual Rep1-Rep4, read-out: percent in vitro complex I activity relative to solvent control, single replicates
[7] = mean of Rep1-4, read-out: percent in vitro complex I activity relative to solvent control, Mean

Question: What does the source list for `CCCOc1ccc(Cn2cnc3ccccc32)cc1` [Compound 7355741]?
Answer: activity at 0.0001 µM [1]: 85.2%; activity at 0.0005 µM [1]: 94.7%; activity at 0.001 µM [1]: 89.8%; activity at 0.0025 µM [1]: 99%; activity at 0.005 µM [1]: 86.1%; activity at 0.013 µM [1]: 94.6%; activity at 0.025 µM [1]: 90.6%; activity at 0.063 µM [1]: 82.3%; activity at 0.125 µM [1]: 77.2%; activity at 0.313 µM [1]: 62.4%; activity at 0.625 µM [1]: 47.9%; activity at 1.5 µM [1]: 31.8%; activity at 3 µM [1]: 15.1%; activity at 15 µM [1]: 3.6%; activity at 37.5 µM [1]: 5.38%; activity at 75 µM [1]: 7.89%; IC50 [1, 2]: 620 nM; Log IC50 C. elegans complex I [1]: -0.21 µM; IC50 [1, 3]: 620 nM; IC50 [1, 4]: 620 nM; Screen "Hit" (L1 wild-type C. elegans): Y (hits were identified as compounds that reduced relative motility below 0.25 (75% reduction)); C. elegans KCN Survival (L1 wild-type C. elegans; [5]): 0.923; C. elegans KCN Survival (L1 wild-type C. elegans; Dose 0.39 µM): 0.831; C. elegans KCN Survival (L1 wild-type C. elegans; Dose 1.56 µM): 0.783; C. elegans KCN Survival (L1 wild-type C. elegans; Dose 3.13 µM): 1.007; C. elegans KCN Survival (L1 wild-type C. elegans; Dose 6.25 µM): 0.620; C. elegans KCN Survival (L1 wild-type C. elegans; Dose 12.5 µM): 0.122; C. elegans KCN Survival (L1 wild-type C. elegans; Dose 25 µM): 0.000; C. elegans KCN Survival (L1 wild-type C. elegans; Dose 50 µM): 0.000; C. elegans KCN Survival (L1 wild-type C. elegans; Dose 100 µM): 0.000; CC50 at 2 days (in vitro): 76200 nM; viability at 2 days, 3.13 µM (in vitro): 99.8%; viability at 2 days, 6.25 µM (in vitro): 100%; viability at 2 days, 12.5 µM (in vitro): 100%; viability at 2 days, 25 µM (in vitro): 100%; viability at 2 days, 50 µM (in vitro): 78.9%; viability at 2 days, 100 µM (in vitro): 30.3%

Question: Which remaining activity at 0.0001 µM [1, 6] does the source give for `Cc1nc2ccccc2n1Cc1ccc(Br)cc1` [Compound 5567167] here?
Answer: 94%

Question: And the remaining activity at 0.0001 µM [1, 7]?
Answer: 85.9%

Question: And the remaining activity at 0.0005 µM [1, 6]?
Answer: 85.1%

Question: What about the remaining activity at 0.0005 µM [1, 7] of the same compound?
Answer: 85.6%

Question: What about the remaining activity at 0.001 µM [1, 6] of the same compound?
Answer: 85.9%

Question: What about the remaining activity at 0.001 µM [1, 7] of the same compound?
Answer: 84.4%

Question: And the remaining activity at 0.0025 µM [1, 7]?
Answer: 79.7%

Question: And the remaining activity at 0.005 µM [1, 6]?
Answer: 78%

Question: And the remaining activity at 0.005 µM [1, 7]?
Answer: 79.5%

Question: What about the remaining activity at 0.013 µM [1, 6] of the same compound?
Answer: 72.2%

Question: And the remaining activity at 0.013 µM [1, 7]?
Answer: 70.5%

Question: And the remaining activity at 0.025 µM [1, 6]?
Answer: 66.7%

Question: What about the remaining activity at 0.025 µM [1, 7] of the same compound?
Answer: 62%

Question: And the remaining activity at 0.063 µM [1, 6]?
Answer: 38.8%

Question: And the remaining activity at 0.063 µM [1, 7]?
Answer: 36%

Question: What about the remaining activity at 0.125 µM [1, 6] of the same compound?
Answer: 23.6%

Question: And the remaining activity at 0.125 µM [1, 7]?
Answer: 23.7%

Question: And the remaining activity at 0.313 µM [1, 6]?
Answer: 8.78%

Question: And the remaining activity at 0.313 µM [1, 7]?
Answer: 11.9%

Question: What about the remaining activity at 0.625 µM [1, 7] of the same compound?
Answer: 2.34%

Question: And the remaining activity at 1.5 µM [1, 7]?
Answer: 0.485%

Question: And the remaining activity at 3 µM [1, 7]?
Answer: 0.612%

Question: What about the remaining activity at 15 µM [1, 6] of the same compound?
Answer: 0%

Question: And the remaining activity at 15 µM [1, 7]?
Answer: 0%

Question: And the remaining activity at 37.5 µM [1, 6]?
Answer: 0%

Question: And the remaining activity at 37.5 µM [1, 7]?
Answer: 0%

Question: And the remaining activity at 75 µM [1, 7]?
Answer: 0.911%

Question: And the IC50 [1, 2]?
Answer: 32 nM

Question: What about the “Log IC50 C. elegans complex I” value [1] of the same compound?
Answer: -1.49 µM

Question: What about the IC50 [1, 3] of the same compound?
Answer: 32 nM

Question: What about the IC50 [1, 4] of the same compound?
Answer: 32 nM

Question: What about the “Screen "Hit"” value (L1 wild-type C. elegans) of the same compound?
Answer: Y (hits were identified as compounds that reduced relative motility below 0.25 (75% reduction))

Question: What about the CC50 at 2 days (in vitro) of the same compound?
Answer: 89300 nM

Question: Which results are given for `Clc1ccccc1OCCCCn1cnc2ccccc21` [Compound 7925804]?
Answer: remaining activity at 0.0001 µM [1, 6]: 106%; remaining activity at 0.0001 µM [1, 7]: 95.7%; remaining activity at 0.0005 µM [1, 6]: 98.1%; remaining activity at 0.0005 µM [1, 7]: 95.4%; remaining activity at 0.001 µM [1, 7]: 95.9%; remaining activity at 0.0025 µM [1, 6]: 100%; remaining activity at 0.0025 µM [1, 7]: 100%; remaining activity at 0.005 µM [1, 6]: 93.7%; remaining activity at 0.005 µM [1, 7]: 93.4%; remaining activity at 0.013 µM [1, 6]: 92.2%; remaining activity at 0.013 µM [1, 7]: 96.2%; remaining activity at 0.025 µM [1, 6]: 86.9%; remaining activity at 0.025 µM [1, 7]: 94.4%; remaining activity at 0.063 µM [1, 6]: 83.6%; remaining activity at 0.063 µM [1, 7]: 81.6%; remaining activity at 0.125 µM [1, 6]: 65.6%; remaining activity at 0.125 µM [1, 7]: 64.9%; remaining activity at 0.313 µM [1, 6]: 53.9%; remaining activity at 0.313 µM [1, 7]: 47.4%; remaining activity at 0.625 µM [1, 7]: 32.7%; remaining activity at 1.5 µM [1, 7]: 15.5%; remaining activity at 3 µM [1, 7]: 8.88%; remaining activity at 15 µM [1, 7]: 2.59%; remaining activity at 37.5 µM [1, 7]: 2.95%; remaining activity at 75 µM [1, 7]: 6.38%; activity at 0.0001 µM [1]: 95.7%; activity at 0.0005 µM [1]: 95.4%; activity at 0.001 µM [1]: 95.9%; activity at 0.0025 µM [1]: 100%; activity at 0.005 µM [1]: 93.4%; activity at 0.013 µM [1]: 96.2%; activity at 0.025 µM [1]: 94.4%; activity at 0.063 µM [1]: 81.6%; activity at 0.125 µM [1]: 64.9%; activity at 0.313 µM [1]: 47.4%; activity at 0.625 µM [1]: 32.7%; activity at 1.5 µM [1]: 15.5%; activity at 3 µM [1]: 8.88%; activity at 15 µM [1]: 2.59%; activity at 37.5 µM [1]: 2.95%; activity at 75 µM [1]: 6.38%; IC50 [1, 2]: 270 nM; Log IC50 C. elegans complex I [1]: -0.57 µM; IC50 [1, 4]: 270 nM; Screen "Hit" (L1 wild-type C. elegans): Y (hits were identified as compounds that reduced relative motility below 0.25 (75% reduction)); C. elegans KCN Survival (L1 wild-type C. elegans; [5]): 1.043; C. elegans KCN Survival (L1 wild-type C. elegans; Dose 0.39 µM): 1.064; C. elegans KCN Survival (L1 wild-type C. elegans; Dose 1.56 µM): 1.052; C. elegans KCN Survival (L1 wild-type C. elegans; Dose 3.13 µM): 1.018; C. elegans KCN Survival (L1 wild-type C. elegans; Dose 6.25 µM): 0.644; C. elegans KCN Survival (L1 wild-type C. elegans; Dose 12.5 µM): 0.155; C. elegans KCN Survival (L1 wild-type C. elegans; Dose 25 µM): 0.142; C. elegans KCN Survival (L1 wild-type C. elegans; Dose 50 µM): 0.136; C. elegans KCN Survival (L1 wild-type C. elegans; Dose 100 µM): 0.181; CC50 at 2 days (in vitro): 40200 nM; viability at 2 days, 3.13 µM (in vitro): 100%; viability at 2 days, 6.25 µM (in vitro): 99.5%; viability at 2 days, 12.5 µM (in vitro): 97.9%; viability at 2 days, 25 µM (in vitro): 73.8%; viability at 2 days, 50 µM (in vitro): 40.2%; viability at 2 days, 100 µM (in vitro): 8%

Question: What does the source list for `Cc1ccc(Cn2c(C)nc3ccccc32)cc1` [Compound 5651984]?
Answer: IC50 [1, 2]: 180 nM; Log IC50 C. elegans complex I [1]: -0.74 µM; IC50 [1, 3]: 180 nM; IC50 [1, 4]: 180 nM; Screen "Hit" (L1 wild-type C. elegans): Y (hits were identified as compounds that reduced relative motility below 0.25 (75% reduction)); CC50 at 2 days (in vitro): 95400 nM

Source: publication PMC11079024, “Identification of a family of species-selective complex I inhibitors as potential anthelmintics” (Nature Communications, 2024)
